Where “and” joins values, the source holds several entries; their conditions need not be identical. Identical values can stand only once.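 Grown in 96-well plates, cells were treated for 48 hours with each compound at five concentrations. Insufficient inhibition: endpoint recorded as highest concentration tested. GI50 is the concentration that inhibits growth by half. TGI: concentration producing complete growth inhibition.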

Some test systems named below: MOLT-4 leukemia; HT29 colon; ACHN renal; OVCAR-4 ovarian; CAKI-1 renal; RPMI-8226 leukemia; 786-0 renal; MCF7 breast; OVCAR-8 ovarian; LOX IMVI melanoma; MDA-MB-231 breast; HOP-62 NSCLC; MDA-MB-468 breast; U251 CNS; T-47D breast; MALME-3M melanoma; HCT-116 colon; IGROV1 ovarian; SW-620 colon; COLO 205 colon; A498 renal; UO-31 renal; HCT-15 colon; OVCAR-5 ovarian; SNB-19 CNS; A549 NSCLC; HCC-2998 colon; SN12C renal; RXF 393 renal; KM12 colon; SF-295 CNS; SK-OV-3 ovarian; NCI-H226 lung; BT-549 breast; OVCAR-3 ovarian; SF-268 CNS; UACC-62 melanoma; SK-MEL-28 melanoma; NCI-H522 lung; SF-539 CNS; EKVX NSCLC; NCI-H460 lung; SK-MEL-5 melanoma; SK-MEL-2 melanoma; NCI-H23 lung; TK-10 renal; PC-3 prostate; DU-145 prostate; MDA-MB-435; HOP-92 NSCLC; CCRF-CEM leukemia; SR leukemia; K-562 leukemia; M14 melanoma.

Common to all, as to assay: NCI-60 cell line screen, 48 h

In the case of `Cc1ccccc1Nc1nnc(-c2c[nH]c3ccccc23)o1`, the GI50 in the experiment with MOLT-4 leukemia was 2.55 µM; with HT29 colon it was 2.13 µM; in the experiment on ACHN renal it was 4.32 µM; in the experiment on OVCAR-4 ovarian it was 8.06 µM; in the experiment with CAKI-1 renal, 0.897 µM; with RPMI-8226 leukemia, 3.03 µM. The GI50 with 786-0 renal is 5.58 µM; with MCF7 breast it was 3.02 µM; in the experiment on OVCAR-8 ovarian it was 3.44 µM; in the experiment with LOX IMVI melanoma it was 2.96 µM; in the experiment with MDA-MB-231 breast, 3.68 µM; with HOP-62 NSCLC it was 3.6 µM. Also, the GI50 in the experiment with MDA-MB-468 breast is 2.21 µM; in the experiment on U251 CNS it was 3.18 µM; in the experiment on T-47D breast it was 12.6 µM; with MALME-3M melanoma it was 0.869 µM; in the experiment with HCT-116 colon, 5.96 µM; in the experiment with IGROV1 ovarian it was 2.32 µM. Moreover, the GI50 was 0.882 µM with SW-620 colon; 2.22 µM with COLO 205 colon; over 100 µM with A498 renal; 1.88 µM with UO-31 renal; 1.78 µM in the experiment with HCT-15 colon; 4.13 µM with OVCAR-5 ovarian. In addition, the GI50 is 3.36 µM in the experiment on SNB-19 CNS; 6.09 µM in the experiment with A549 NSCLC; 3.3 µM in the experiment on HCC-2998 colon; 3.25 µM in the experiment on SN12C renal; 2.25 µM with RXF 393 renal; 4.6 µM in the experiment on KM12 colon. The GI50 in the experiment on SF-295 CNS was 0.567 µM; in the experiment with SK-OV-3 ovarian, 3.52 µM; in the experiment with NCI-H226 lung it was 4.44 µM; in the experiment with BT-549 breast, 3.7 µM; with OVCAR-3 ovarian it was 0.889 µM; in the experiment on SF-268 CNS, 5.15 µM. The GI50 in the experiment on UACC-62 melanoma was 1.13 µM; with SK-MEL-28 melanoma, 3.91 µM; with NCI-H522 lung, 0.85 µM; in the experiment with SF-539 CNS, 1.9 µM; with EKVX NSCLC, 4.48 µM; in the experiment with NCI-H460 lung, 2.88 µM. In addition, the GI50 was 2.32 µM with SK-MEL-5 melanoma; 1.16 µM with SK-MEL-2 melanoma; 3.38 µM with NCI-H23 lung; 7.65 µM in the experiment with TK-10 renal; 3.41 µM in the experiment with PC-3 prostate; 5.47 µM with DU-145 prostate. Besides, the GI50 is 0.298 µM with MDA-MB-435; 5.66 µM with HOP-92 NSCLC; 2.09 µM in the experiment on CCRF-CEM leukemia; 0.527 µM with SR leukemia; 0.531 µM in the experiment with K-562 leukemia; 1.32 µM in the experiment with M14 melanoma. For the same molecule, the TGI in the experiment on MOLT-4 leukemia is over 100 µM; in the experiment with HT29 colon, 11.6 µM; with ACHN renal it was over 100 µM; in the experiment with OVCAR-4 ovarian, over 100 µM; with CAKI-1 renal, over 100 µM; in the experiment with RPMI-8226 leukemia, over 100 µM. Moreover, the TGI with 786-0 renal, with MCF7 breast, in the experiment on OVCAR-8 ovarian, in the experiment on LOX IMVI melanoma, with MDA-MB-231 breast and in the experiment with HOP-62 NSCLC was over 100 µM throughout. Besides, the TGI is 7.14 µM with MDA-MB-468 breast; over 100 µM in the experiment with U251 CNS; over 100 µM with T-47D breast; over 100 µM in the experiment with MALME-3M melanoma; over 100 µM in the experiment with HCT-116 colon; over 100 µM in the experiment with IGROV1 ovarian. The TGI in the experiment on SW-620 colon was over 100 µM; in the experiment with COLO 205 colon it was 16.7 µM; in the experiment with A498 renal, over 100 µM; with UO-31 renal, over 100 µM; in the experiment with HCT-15 colon, over 100 µM; in the experiment with OVCAR-5 ovarian, over 100 µM. The TGI in the experiment with SNB-19 CNS was over 100 µM; with A549 NSCLC, over 100 µM; in the experiment with HCC-2998 colon it was 15.9 µM; in the experiment on SN12C renal, over 100 µM; with RXF 393 renal, 9.91 µM; in the experiment with KM12 colon it was over 100 µM. The TGI was 6 µM with SF-295 CNS; over 100 µM with SK-OV-3 ovarian; over 100 µM in the experiment with NCI-H226 lung; over 100 µM in the experiment on BT-549 breast; over 100 µM with OVCAR-3 ovarian; over 100 µM with SF-268 CNS. The TGI with UACC-62 melanoma is over 100 µM; in the experiment with SK-MEL-28 melanoma, over 100 µM; with NCI-H522 lung it was 6.34 µM; in the experiment on SF-539 CNS, 5.22 µM; in the experiment on EKVX NSCLC, over 100 µM; with NCI-H460 lung, over 100 µM. The TGI in the experiment on SK-MEL-5 melanoma is over 100 µM; in the experiment on SK-MEL-2 melanoma it was 4.4 µM; in the experiment with NCI-H23 lung it was over 100 µM; in the experiment on TK-10 renal, over 100 µM; in the experiment with PC-3 prostate, over 100 µM; in the experiment on DU-145 prostate, over 100 µM. Further, the TGI in the experiment on MDA-MB-435 is 1.13 µM; in the experiment on HOP-92 NSCLC it was over 100 µM; in the experiment with CCRF-CEM leukemia, over 100 µM; in the experiment with SR leukemia, over 100 µM; in the experiment on K-562 leukemia it was over 100 µM; in the experiment on M14 melanoma it was over 100 µM.
`CC(=O)O[C@H]1C[C@H](O[C@H]2[C@@H](O)C[C@H](O[C@H]3[C@@H](O)C[C@H](O[C@H]4CC[C@@]5(C)C(CCC6C5C[C@@H](O)[C@]5(C)[C@@H](C7=CC(=O)OC7)CC[C@]65O)C4)O[C@@H]3C)O[C@@H]2C)O[C@H](C)[C@H]1O[C@@H]1O[C@H](CO)[C@@H](O)[C@H](O)[C@H]1O` (some centres not stated): in the experiment with MDA-MB-468 breast, the GI50 is 0.0856 µM and 0.22 µM; the TGI was 0.223 µM and 0.577 µM.
As to `CCn1cc(C2NC(=O)c3ccccc3N2)c2cccc(C)c21` (configuration not stated), in the experiment with MDA-MB-468 breast, the GI50 was 0.216 µM and the TGI was 0.656 µM.
Consider `COc1cc2c(Nc3ccc(Cl)c(Cl)c3F)ncnc2cc1OCC1C[C@@H]2CN(C)C[C@@H]2C1` (some centres not stated), for which, in the experiment with MDA-MB-468 breast, the GI50 is 0.0241 µM and 0.0217 µM and 0.0212 µM; the TGI is 0.175 µM and 0.633 µM and 0.213 µM.
Regarding `COc1ccc(C(=O)N2N=C(c3ccc(Br)cc3)CC2c2cn(-c3ccccc3)nc2-c2ccccc2)cc1` (configuration not stated), in the experiment with MDA-MB-468 breast, the GI50 was 6.59 µM and the TGI was over 50 µM.
Taken in the same sequence, the figures for `C=C1C(=O)O[C@H]2[C@H]1CC/C(COC(=O)NCc1ccc(Cn3c(=O)sn(CCCC)c3=O)cc1)=C\CC[C@@]1(C)O[C@@H]21` were 1.73 µM and 3.63 µM.
Taken in the same sequence, the figures for `CN1CCN(CCCOc2ccc3ncnc(Nc4ccc(OCc5cccc(F)c5)c(Cl)c4)c3c2)CC1` were 0.367 µM and 1.84 µM.
On to `[Cl][Ru].c1ccc(-c2cc(-c3ccccn3)nc(-c3ccccn3)c2)cc1.c1ccc(-c2ccnc3c2ccc2c(-c4ccccc4)ccnc23)cc1`, for which, in the experiment with MDA-MB-468 breast, the GI50 is 0.208 µM and the TGI worked out at 0.635 µM.
As for `COc1cc(Cl)cc(-c2nn(-c3cccc(NC(=O)c4cccc(C(F)(F)F)c4)c3)cc2-c2ccncc2)c1`, in the experiment on MDA-MB-468 breast, the GI50 was 4.26 µM and the TGI was over 100 µM.
Regarding `O=C(c1ccccc1)N(C(=S)NCCc1ccc(Cl)cc1)c1ccc(Cl)cc1`, in the experiment on MDA-MB-468 breast, the GI50 was 5.41 µM and the TGI came to 33.4 µM.
Taken in the same sequence, the figures for `CC(C)c1ccc(COCc2cc(CN3CCCC3)c(O)c3ncccc23)cc1` were 0.401 µM and 1.88 µM.
As to `COc1cccc(CNCCN2C(=O)c3ccc4c5c(ccc(c35)C2=O)C(=O)N(CCNCc2cccc(OC)c2)C4=O)c1`, in the experiment with MDA-MB-468 breast, the GI50 is 1.76 µM and the TGI is 3.56 µM.
Taken in the same sequence, the figures for `CCOC(=O)c1cnc2c(C)cc(C)cc2c1NCCCN(C)C` were 2 µM and 8.45 µM.

The record behind these values is PubChem BioAssay (NCI).
